Assays:
Format in all cases: cell-based
[1] = tested on: C3H10T½ mouse embryonic fibroblasts; test: Osteocalcin expression in C3H10T½ cells; conditions: 1-10 μM
[2] = tested on: marrow stromal cells; test: Osteogenic differentiation of marrow stromal cells; conditions: for Effect on oxysterol-induced osteogenic differentiation: marrow stromal cells
Description: Certain osteogenic oxysterols, such as 20(S)-hydroxycholesterol (20S), induce the osteogenic differentiation of marrow stromal cells by activating the hedgehog signaling pathway. […] Thus, LXR activation can interfere with osteogenic differentiation induced by the activation of hedgehog signaling.
When treated with from 1-10 μM of GW3965 for 8 days, GW3965 inhibited Shh-induced alkaline phosphatase activity.

[3] = tested on: C3H10T½ mouse embryonic fibroblasts; test: Alkaline phosphatase activity in C3H10T½ cells; conditions: 1-10 μM
[4] = tested on: Gli-luciferase reporter construct (8Xgli); test: Gli-luciferase reporter assay in M2-10B4 cells
Description: Activation or inhibition of the hedgehog pathway was assessed by measuring Gli-reporter activity. This provided a direct indication of the activation or inhibition of the hedgehog pathway. A first set of marrow stromal cells, M2-10B4, were transfected with a Gli-luciferase reporter construct (8Xgli) and a second set of M2-10B4 were transfected with an empty reporter construct without Gli response elements (pGL3b). […] Gli-luciferase reporter activity was tested after 48 hours of treatment. FIG. 1 presents the results of the study. Results from a representative experiment are shown as the mean of triplicate determinations±SD, and expressed as fold induction over control untreated cells.

[5] = tested on: M2-10B4 cells; test: Shh-induced osteocalcin mRNA expression in M2-10B4 cells; conditions: 3 days, 1 μM to 10 μM, relative to Shh alone
[6] = tested on: Patched (Ptch); test: Q-RT-PCR expression of hedgehog target gene Patched (Ptch) in M2-10B4 cells
Description: (§1) Activation or inhibition of the hedgehog pathway was assessed by extracting RNA from test cells and using quantitative real time PCR (Q-RT-PCR) to measure the expression of the hedgehog target genes, Gli-1 and Patched (Ptch). […] Expression of Gli-1 and Patched (Ptch) was measured after 72 hours of treatment. FIGS. 2A and 2B present the results of the study. Results from a representative experiment are shown as the mean of triplicate determinations±SD, and expressed as fold induction over control untreated cells.

[7] = tested on: Gli-1; test: Q-RT-PCR expression of hedgehog target gene Gli-1 in M2-10B4 cells
Description: as §1

[8] = tested on: M2-10B4 marrow stromal cells; test: Alkaline phosphatase activity in M2-10B4 marrow stromal cells; conditions: for Effect on Shh-induced alkaline phosphatase activity / Alkaline Phosphatase Activity: M2-10B4 cells
Description: Alkaline phosphatase activity provides a measure of the osteogenic differentiation of cells. […] The oxysterol combination SS contains 22(S)-hydroxycholesterol and 20(S)-hydroxycholesterol in equal molar proportions. An indication of the molar concentration of the oxysterol combination SS refers to the molar concentration of each component of the combination.

[9] = tested on: hedgehog pathway; test: Net effect of LXR agonists on the hedgehog pathway
Description: Thus, GW3965 is a hedgehog-inhibiting LXR agonist. […] Thus, 22(R)-hydroxycholesterol is a hedgehog-inhibiting LXR agonist. […] The Oxy13 compound is discussed in international application PCT/US2007/05073, which is hereby incorporated by reference.
A known hedgehog agonist is contacted with a model cell in an amount known to induce a hedgehog pathway response or hedgehog signaling response in the cell. Any cell that responds to a hedgehog agonist and an LXR agonist can be used as a model cell. The compound is then tested with an assay to measure the level of hedgehog activation or hedgehog signaling. One of skill in the art would know how to select an assay and conduct an assay to measure the level of hedgehog activation or hedgehog signaling. The hedgehog agonist will cause the level of hedgehog activation or signaling to increase above that of a control cell. While the hedgehog agonist is in contact with the cell, the compound being tested is also contacted with the cell. The level of hedgehog activation or signaling is measured. If introducing the compound decreases the level of hedgehog activation or signaling a statistically significant amount below the level when only the hedgehog agonist was in contact with the cell, then the compound is deemed a hedgehog-inhibiting LXR agonist.

[10] = tested on: LXRα and LXRβ; test: Inhibition of Shh-induced signaling and alkaline phosphatase activity in siRNA-transfected cells; conditions: for Ability to inhibit Shh-induced signaling and alkaline phosphatase activity: cells transfected with LXRα and LXRβ siRNA; for Ability to inhibit Shh-induced signaling and alkaline phosphatase activity: blocked or not: cells transfected with control scrambled siRNA
Description: Small interfering RNA (siRNA) to LXRα and LXRβ caused an 80-90% inhibition of mRNA expression for these genes, as well as inhibition of ligand-induced expression of LXR target genes, ATP-binding cassette (ABC) transporter proteins ABCA1 and ABCG1.

[11] = 72 hours, SS 5 μM + TO901317 5 μM
[12] = 72 hours, SS 5 μM + TO901317 10 μM
[13] = 72 hours, Shh 100 ng/mL + TO901317 5 μM
[14] = 72 hours, Shh 100 ng/mL + TO901317 10 μM

Which results are given for `O=S(=O)(c1ccccc1)N(CC(F)(F)F)c1ccc(C(O)(C(F)(F)F)C(F)(F)F)cc1` [TO901317]?
Effect on osteocalcin expression [1]: inhibited; Effect on oxysterol-induced osteogenic differentiation [2]: block; Effect on alkaline phosphatase activity [3]: inhibited; Gli-luciferase reporter activity ([4]; 48 hours, SS 5 μM + TO901317 5 μM): about 2.5 fold induction over control un; Gli-luciferase reporter activity ([4]; 48 hours, SS 5 μM + TO901317 10 μM): about the same level as of the control cells; Gli-luciferase reporter activity ([4]; 48 hours, Shh 200 ng/mL + TO901317 5 μM): about the same level as of the control cells; Gli-luciferase reporter activity ([4]; TO901317 alone, 5 μM or 10 μM): less than the control cells; Effect on Shh-induced osteocalcin mRNA expression [5]: inhibited; Ptch expression [6, 11]: about 6 fold induction over control un; Ptch expression (FIG. 2B; sentence prints Gli-1 expression) [6, 12]: about 4 fold induction over control un; Ptch expression [6, 13]: about the same level as that of the control cells; Ptch expression [6, 14]: about the same level as that of the control cells; Ptch expression ([6]; TO901317 alone, 5 μM or 10 μM): about the same as the control cells; Gli-1 expression [7, 11]: about 8 fold induction over control un; Gli-1 expression [7, 12]: about 7 fold induction over control un; Gli-1 expression [7, 13]: about 7 fold induction over control un; Gli-1 expression [7, 14]: about 3 fold induction over control un; Gli-1 expression ([7]; TO901317 alone, 5 μM or 10 μM): less than the control cells; Effect on Shh-induced alkaline phosphatase activity ([8]; 3 days, concentrations as low as 1 μM): inhibited; Alkaline Phosphatase Activity ([8]; SS 5 μM + TO901317 5 μM): 198 ± 17 units/mg protein ± SD; Alkaline Phosphatase Activity ([8]; SS 5 μM + TO901317 10 μM): 61 ± 12 units/mg protein ± SD; Alkaline Phosphatase Activity ([8]; Shh 50 ng/ml + TO901317 5 μM): 3±2 units/mg protein ± SD; Net effect on the hedgehog pathway [9]: inhibiting the hedgehog pathway; Ability to inhibit Shh-induced signaling and alkaline phosphatase activity [10]: blocked; Ability to inhibit Shh-induced signaling and alkaline phosphatase activity: blocked or not [10]: not

`O=C(O)Cc1cccc(OCCCN(Cc2cccc(C(F)(F)F)c2Cl)CC(c2ccccc2)c2ccccc2)c1` [GW3965, 3-[3-[[[2-chloro-3-(trifluoromethyl)phenyl]methyl](2,2-diphenylethyl)amino]propoxy]benzeneacetic acid] was tested. Which “Effect on Shh-induced osteogenic differentiation” value ([2]; M2-10B4 marrow stromal cells) did it give?
Its value is “inhibited”.

And the “Effect on oxysterol-induced osteogenic differentiation” value [2]?
The value was “block”.

And the “Effect on Shh-induced alkaline phosphatase activity” value ([8]; 8 days, 1-10 μM)?
Its value is “inhibited”.

What about the “Net effect on the hedgehog pathway” value [9] of the same compound?
The value was “inhibiting the hedgehog pathway”.

What about the “Ability to inhibit Shh-induced signaling and alkaline phosphatase activity” value [10] of the same compound?
The value was “blocked”.

What about the “Ability to inhibit Shh-induced signaling and alkaline phosphatase activity: blocked or not” value [10] of the same compound?
The value was “not”.

For `CC(C)CCC[C@](C)(O)[C@H]1CC[C@H]2[C@@H]3CC=C4C[C@@H](O)CC[C@]4(C)[C@H]3CC[C@@]21C` [20(S)-hydroxycholesterol], which “Induction of alkaline phosphatase activity” value ([8]; marrow stromal cells M2-10B4, oxysterol alone) is on record?
Its value is “induce alkaline phosphatase activity”.

What about the “Net effect on the hedgehog pathway” value [9] of the same compound?
The value was “activating the hedgehog pathway”.

With `C[C@H](CCCC(C)(C)O)[C@H]1CC[C@H]2[C@@H]3CC=C4C[C@@H](O)CC[C@]4(C)[C@H]3CC[C@]12C` [25-hydroxycholesterol] as the compound, how does the “Net effect on the hedgehog pathway” value [9] read?
Its value is “leaves the hedgehog pathway active”.

Which “Net effect on the hedgehog pathway” value [9] does the source give for `C=C(C)CCC[C@](C)(O)C1CCC2C3CC=C4CC(O)CC[C@]4(C)C3CC[C@@]21C` (stereo partly drawn) [Oxy13] here?
Its value is “activating the hedgehog pathway”.

How did the “Net effect on the hedgehog pathway” value [9] turn out when `CC(C)CC[C@@H](O)[C@@H](C)[C@H]1CC[C@H]2[C@@H]3CC=C4C[C@@H](O)CC[C@]4(C)[C@H]3CC[C@]12C` [22(R)-hydroxycholesterol] was run?
Its value is “inhibiting the hedgehog pathway”.

— US20100048944A1, “INTERACTIONS OF HEDGEHOG AND LIVER X RECEPTOR SIGNALING PATHWAYS” (priority 2006, published 2010)
